Target: T1, hROMK (hKir1.1) (Homo sapiens, UniProt P48048)
T1 construct: expressed in transfected cells; HEK-hKir1.1)
T1 sequence (P48048 1-391): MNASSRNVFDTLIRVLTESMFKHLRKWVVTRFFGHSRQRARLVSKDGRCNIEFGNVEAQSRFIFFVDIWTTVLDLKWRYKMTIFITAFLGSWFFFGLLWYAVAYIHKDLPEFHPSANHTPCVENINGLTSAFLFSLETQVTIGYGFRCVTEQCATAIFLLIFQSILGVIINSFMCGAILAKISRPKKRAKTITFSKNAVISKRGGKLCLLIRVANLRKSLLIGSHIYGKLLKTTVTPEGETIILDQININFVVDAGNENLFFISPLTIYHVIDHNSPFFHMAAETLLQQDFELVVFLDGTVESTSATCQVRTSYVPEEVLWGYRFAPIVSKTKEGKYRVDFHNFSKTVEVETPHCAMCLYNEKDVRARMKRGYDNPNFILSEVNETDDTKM
Experiment: Thallium Flux Assay (ROMK channel functional thallium flux assay, FLIPR-Tetra, 384 wells)
Format: cell-based
Settings: HEK293 cells stably expressing hROMK (hKir1.1); 30 min incubation with test compound
Procedure: The following Thallium Flux Assay was performed on the final product compounds in all the Examples. This assay makes use of the ability of thallium to permeate through open ROMK channels and increase the fluorescence of a dye previously loaded into the cells. Under control conditions, cells loaded with dye and exposed to thallium-containing medium display a time-dependent increase in fluorescence, the rate of which depends on number of functional channels. When cells are incubated in the presence of a channel inhibitor, the increase in fluorescence is attenuated in a concentration-dependent manner, and IC50 values of inhibition by compounds can be accurately determined. This assay has been established with cell lines expressing either human, or rat ROMK channels, and operates in 384-well format.
HEK293 cells stably expressing hROMK (hKir1.1) were grown at 37° C. in a 10% CO2 humidified incubator in complete growth media: Dulbecco's Modified Eagle Medium supplemented with non-essential amino acids, Penicillin/Streptomycin/Glutamine, G418 and FBS. At >80% confluency, aspirate the media from the flask and rinse with 10 mL Calcium/Magnesium-free PBS. Add 5 mL of 1× trypsin (prepared in Ca/Mg Free PBS) to T-225 flask and return flask to 37° C./CO2 incubator for 2-3 minutes. To dislodge the cell, gently bang the side of the flask with your hand. Triturate the cells completely and then transfer the cells to 25 mL complete media. Centrifuge at 1,500 rpm for 6 min followed by resuspension in complete growth media and determine cell concentration. For typical re-seeding, 4E6 cells/T-225 flask will attain >80% confluency in 4 days. Under ideal growth conditions and appropriate tissue culture practices, this cell line is stable for 40-45 passages.
• FluxOR™ Reagent (Component A) • FluxOR™ Assay Buffer (Component B)—10× Concentrate • PowerLoad™ Concentrate (Component C)—100× Concentrate • Probenecid (Component D)—Lyophilized sample is kept at −20° C. Water soluble, 100× after solubilization in 1 mL water. […] Store at 4° C. • Thallium sulfate (Tl2SO4) Concentrate (Component G)—50 mM in water. Store at 4° C. • DMSO (dimethyl sulfoxide, Component H)—1 mL (100%) Reagent Preparation: FluxOR Working Solutions • 1000× FluxOR™ Reagent: Reconstitute a vial of component A in 100 μl DMSO; Mix well; Store 10 μl aliquots at −20° C. • 1× FluxOR™ Assay Buffer: Dilute Component B 10-fold with water; Adjust pH to 7.4 with Hepes/NaOH; Filter and store at 4° C. • Probenecid/Assay Buffer: 100 mL of 1× FluxOR™ Assay Buffer; 1 mL of reconstituted component D; Store at 4° C. • Loading Buffer (per microplate): 10 μl 1000× FluxOR™ Reagent; 100 μl component C; 10 mL Probenecid/Assay Buffer • Compound Buffer (per microplate): 20 mL Probenecid/Assay Buffer; 0.3 mM ouabain (10 mM ouabain in water can be stored in amber bottle/aluminum foil at room temperature); Test compound • 1× FluxOR™ Chloride-Free Buffer: Prepare 1× working solution in water. Can be stored at room temperature • Stimulant Buffer (prepared at 5× final concentration in 1× FluxOR™ Chloride-Free Buffer): 7.5 mM Thallium sulfate and 0.75 mM Potassium sulfate (to give a final assay concentration of 3 mM Thallium/0.3 mM Potassium). Store at 4° C. when not in use. If kept sterile, this solution is good for months. Assay Protocol—
The ROMK channel functional thallium flux assay is performed in 384 wells, using the FLIPR-Tetra instrument. HEK-hKir1.1 cells are seeded in Poly-D-Lysine microplates and kept in a 37° C.-10% CO2 incubator overnight. On the day of the experiment, the growth media is replaced with the FluxOR™ reagent loading buffer and incubated, protected from light, at ambient temperature (23-25° C.) for 90 min. The loading buffer is replaced with assay buffer±test compound followed by 30 min incubation at ambient temperature, where the Thallium/Potassium stimulant is added to the microplate.
• 1. Seed HEK-hKir1.1 cells (50 μl at 20,000 cells/well) in 384-well PDL coated Microplates • 2. […]

Row | Structure (SMILES) | IC50 [nM]
1 | Cc1c([C@@H](O)CN2CCN(c3ccc4cc(C#N)ccc4c3)C(=O)C2)ccc2c1COC2=O [Example 2, 6-{4-[(2R)-2-Hydroxy-2-(4-methyl-1-oxo-1,3-dihydro-2-benzofuran-5-yl)ethyl]-2-oxopiperazin-1-yl}naphthalene-2-carbonitrile] | 50
2 | Cc1cc2c(cc1C(O)CN1CCN(c3ccc4cc(C#N)ccc4c3)C(=O)C1)COC2=O (racemic) [Example 3, 6-{4-[2-Hydroxy-2-(6-methyl-1-oxo-1,3-dihydro-2-benzofuran-5-yl)ethyl]-2-oxopiperazin-1-yl}naphthalene-2-carbonitrile] | 70
3 | Cc1c([C@@H](O)CN2CCN(c3cc4ccc(C#N)cc4cn3)C(=O)C2)ccc2c1COC2=O [Example 5, 3-{4-[(2R)-2-Hydroxy-2-(4-methyl-1-oxo-1,3-dihydro-2-benzofuran-5-yl)ethyl]-2-oxopiperazin-1-yl}isoquinoline-7-carbonitrile] | 80
4 | N#Cc1ccc2cc(N3CCN(CCc4ccc5c(c4)COC5=O)CC3=O)ccc2c1 [Example 1, 6-{2-Oxo-4-[2-(1-oxo-1,3-dihydro-2-benzofuran-5-yl)ethyl]piperazin-1-yl}naphthalene-2-carbonitrile] | 60
5 | Cc1c([C@@H](O)CN2CCN(c3nc4cc(C#N)ccc4s3)C(=O)C2)ccc2c1COC2=O [Example 7, 2-{4-[(2R)-2-Hydroxy-2-(4-methyl-1-oxo-1,3-dihydro-2-benzofuran-5-yl)ethyl]-2-oxopiperazin-1-yl}-1,3-benzothiazole-5-carbonitrile] | 40
6 | Cc1c([C@@H](O)CN2CCN(c3ccc4ccc(C#N)cc4c3)C(=O)C2)ccc2c1COC2=O [Example 6, 7-{4-[(2R)-2-Hydroxy-2-(4-methyl-1-oxo-1,3-dihydro-2-benzofuran-5-yl)ethyl]-2-oxopiperazin-1-yl}naphthalene-2-carbonitrile] | 90

More lines, now with the values ahead:

Row | IC50 [nM] | Structure (SMILES)
7 | 160 | Cc1c([C@@H](O)CN2CCN(c3ccc4cc(C#N)sc4n3)C(=O)C2)ccc2c1COC2=O [Example 8, 6-{4-[(2R)-2-Hydroxy-2-(4-methyl-1-oxo-1,3-dihydro-2-benzofuran-5-yl)ethyl]-2-oxopiperazin-1-yl}thieno-[2,3-b]pyridine-2-carbonitrile]
8 | 210 | Cc1c([C@@H](O)CN2CCN(c3ccc4cc(C#N)cnc4c3)C(=O)C2)ccc2c1COC2=O [Example 10, 7-{4-[(2R)-2-Hydroxy-2-(4-methyl-1-oxo-1,3-dihydro-2-benzofuran-5-yl)ethyl]-2-oxopiperazin-1-yl}quinoline-3-carbonitrile]
9 | 150 | Cc1c([C@@H](O)CN2CCN(c3cc4ccc(C#N)c(C)c4cn3)C(=O)C2)ccc2c1COC2=O [Example 13, 3-{4-[(2R)-2-Hydroxy-2-(4-methyl-1-oxo-1,3-dihydro-2-benzofuran-5-yl)ethyl]-2-oxopiperazin-1-yl}-8-methylisoquinoline-7-carbonitrile]
10 | 160 | Cc1c([C@@H](O)CN2CCN(c3ccc4cc(C#N)sc4c3)C(=O)C2)ccc2c1COC2=O [Example 14, 6-{4-[(2R)-2-Hydroxy-2-(4-methyl-1-oxo-1,3-dihydro-2-benzofuran-5-yl)ethyl]-2-oxopiperazin-1-yl}-1-benzothiophene-2-carbonitrile]
11 | 80 | Cc1cc2nc(N3CCN(C[C@H](O)c4ccc5c(c4C)COC5=O)CC3=O)ccc2cc1C#N [Example 12, 2-{4-[(2R)-2-Hydroxy-2-(4-methyl-1-oxo-1,3-dihydro-2-benzofuran-5-yl)ethyl]-2-oxopiperazin-1-yl}-7-methylquinoline-6-carbonitrile]
12 | 90 | Cc1c([C@@H](O)CN2CCN(c3nc4ccc(C#N)cc4s3)C(=O)C2)ccc2c1COC2=O [Example 9, 2-{4-[(2R)-2-Hydroxy-2-(4-methyl-1-oxo-1,3-dihydro-2-benzofuran-5-yl)ethyl]-2-oxopiperazin-1-yl}-1,3-benzothiazole-6-carbonitrile]
13 | 140 | Cc1c([C@@H](O)CN2CCN(c3cnc4cc(C#N)ccc4c3)C(=O)C2)ccc2c1COC2=O [Example 11, 3-{4-[(2R)-2-Hydroxy-2-(4-methyl-1-oxo-1,3-dihydro-2-benzofuran-5-yl)ethyl]-2-oxopiperazin-1-yl}quinoline-7-carbonitrile]
14 | 220 | Cc1c([C@@H](O)CN2CCN(c3ccc4nc(S(C)(=O)=O)ccc4c3)C(=O)C2)ccc2c1COC2=O [Example 15, 4-[(2R)-2-hydroxy-2-(4-methyl-1-oxo-1,3-dihydro-2-benzofuran-5-yl)ethyl]-1-[2-(methylsulfonyl)quinolin-6-yl]piperazin-2-one]
